Measurements published in paper doi:10.1101/2024.08.19.608619, “Discovery of potent SARS-CoV-2 nsp3 macrodomain inhibitors uncovers lack of translation to cellular antiviral response” (bioRxiv, 2024).
“And” between values parts separate entries of the source, which are not always exact repeats. Identical values can stand only once. Like-named read-outs stand apart in the source and are kept apart here.

Key:
[1] = tested on: SARS-CoV-2, isolate USA-WA1/2020; assay: microbe, parasite or virus in culture; assay type: cell-based; settings: HeLa-ACE2 SARS-CoV-2 antiviral effect without P-gp inhibitor; for EC50: read-out: ec50; for EC90: read-out: ec90
[2] = tested on: HeLa-ACE2 cells; settings: for perc_max_measured: highest measured response of the dose series; for perc_min_measured: lowest measured response of the dose series
[3] = biological target: T1, human CHRM2 (M2) (Homo sapiens, UniProt P08172); assay: Eurofins CEREP panel, M2; assay type: binding; settings: M2 (h) (antagonist radioligand); test compound concentration 10 uM
T1 construct: purchased Eurofins Cerep (SafetyScreen44), recognised from the panel format
T1 sequence (P08172 1-466): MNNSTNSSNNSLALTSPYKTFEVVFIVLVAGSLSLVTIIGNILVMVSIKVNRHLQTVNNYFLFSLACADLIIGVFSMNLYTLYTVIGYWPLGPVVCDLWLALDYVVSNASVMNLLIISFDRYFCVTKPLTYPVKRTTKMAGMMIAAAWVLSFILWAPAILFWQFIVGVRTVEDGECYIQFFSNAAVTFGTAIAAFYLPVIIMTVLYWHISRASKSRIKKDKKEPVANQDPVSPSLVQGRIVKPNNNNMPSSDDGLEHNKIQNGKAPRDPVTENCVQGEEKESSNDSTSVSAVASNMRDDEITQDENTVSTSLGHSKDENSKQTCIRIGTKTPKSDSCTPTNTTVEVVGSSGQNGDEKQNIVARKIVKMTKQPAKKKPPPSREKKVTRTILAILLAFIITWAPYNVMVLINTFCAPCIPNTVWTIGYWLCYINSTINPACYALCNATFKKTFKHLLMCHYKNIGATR

[4] = biological target: T2, 5-HT2A (h) (Homo sapiens, UniProt P28223); assay: In vitro CEREP profiling, 5-HT2A (h) (agonist radioligand); assay type: binding; settings: test compound concentration 10 uM
T2 construct: purchased Eurofins Cerep (SafetyScreen44), recognised from the panel format
T2 sequence (P28223 whole entry): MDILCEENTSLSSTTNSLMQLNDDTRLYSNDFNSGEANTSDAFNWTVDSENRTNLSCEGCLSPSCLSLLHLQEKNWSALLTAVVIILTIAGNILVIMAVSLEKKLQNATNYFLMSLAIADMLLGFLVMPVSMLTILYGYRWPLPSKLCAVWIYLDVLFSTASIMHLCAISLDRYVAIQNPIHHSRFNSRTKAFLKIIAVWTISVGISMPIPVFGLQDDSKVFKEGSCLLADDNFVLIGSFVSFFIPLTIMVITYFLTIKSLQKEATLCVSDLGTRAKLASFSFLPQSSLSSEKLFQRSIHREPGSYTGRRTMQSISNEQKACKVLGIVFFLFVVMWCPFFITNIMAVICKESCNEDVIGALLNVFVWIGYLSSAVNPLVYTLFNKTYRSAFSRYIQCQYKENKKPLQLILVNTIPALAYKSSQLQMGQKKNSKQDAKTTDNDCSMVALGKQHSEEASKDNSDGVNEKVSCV
Description: (§1) Supplement media-1.zip/Safety_Panel_Profile.csv, table | column: perc_inhibition

[5] = biological target: T3, MAO-A (Rattus norvegicus, UniProt P21396); assay: In vitro CEREP profiling, MAO-A (antagonist radioligand); assay type: binding; settings: test compound concentration 10 uM
T3 construct: purchased Eurofins Cerep (SafetyScreen44), recognised from the panel format
T3 sequence (P21396 1-526): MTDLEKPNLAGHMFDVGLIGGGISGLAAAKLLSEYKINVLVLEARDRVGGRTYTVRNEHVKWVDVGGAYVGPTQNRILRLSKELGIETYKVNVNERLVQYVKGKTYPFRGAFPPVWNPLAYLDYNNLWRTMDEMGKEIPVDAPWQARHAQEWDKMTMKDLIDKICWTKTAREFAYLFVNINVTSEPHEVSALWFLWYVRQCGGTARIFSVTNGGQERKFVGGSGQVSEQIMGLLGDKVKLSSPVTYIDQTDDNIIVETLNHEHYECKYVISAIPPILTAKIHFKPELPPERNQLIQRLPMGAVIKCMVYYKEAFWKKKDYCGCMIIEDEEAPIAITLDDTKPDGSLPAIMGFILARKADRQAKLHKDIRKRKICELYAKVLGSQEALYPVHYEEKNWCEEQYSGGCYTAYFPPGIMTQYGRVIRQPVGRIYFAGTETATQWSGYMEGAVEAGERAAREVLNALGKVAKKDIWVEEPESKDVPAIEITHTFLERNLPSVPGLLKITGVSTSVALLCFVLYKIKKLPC
Description: as §1

[6] = biological target: T4, V1a (h) (Homo sapiens, UniProt P37288); assay: In vitro CEREP profiling, V1a (h) (agonist radioligand); assay type: binding; settings: test compound concentration 10 uM
T4 construct: purchased Eurofins Cerep (SafetyScreen44), recognised from the panel format
T4 sequence (P37288 whole entry): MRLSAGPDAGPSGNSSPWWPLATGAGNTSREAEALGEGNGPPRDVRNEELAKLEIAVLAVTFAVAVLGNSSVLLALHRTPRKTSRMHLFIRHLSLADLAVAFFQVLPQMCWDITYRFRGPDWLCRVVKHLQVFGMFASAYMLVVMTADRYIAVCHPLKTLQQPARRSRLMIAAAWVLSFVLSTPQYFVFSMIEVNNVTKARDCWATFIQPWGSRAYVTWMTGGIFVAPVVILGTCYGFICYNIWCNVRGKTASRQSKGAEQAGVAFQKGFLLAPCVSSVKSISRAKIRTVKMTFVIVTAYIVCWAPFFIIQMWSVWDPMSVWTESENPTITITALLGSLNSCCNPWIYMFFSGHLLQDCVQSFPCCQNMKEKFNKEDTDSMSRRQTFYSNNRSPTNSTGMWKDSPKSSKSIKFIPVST
Description: as §1

[7] = biological target: T5, delta (DOP) (h) (Homo sapiens, UniProt P41143); assay: In vitro CEREP profiling, delta (DOP) (h) (agonist radioligand); assay type: binding; settings: test compound concentration 10 uM
T5 construct: purchased Eurofins Cerep (SafetyScreen44), recognised from the panel format
T5 sequence (P41143 whole entry): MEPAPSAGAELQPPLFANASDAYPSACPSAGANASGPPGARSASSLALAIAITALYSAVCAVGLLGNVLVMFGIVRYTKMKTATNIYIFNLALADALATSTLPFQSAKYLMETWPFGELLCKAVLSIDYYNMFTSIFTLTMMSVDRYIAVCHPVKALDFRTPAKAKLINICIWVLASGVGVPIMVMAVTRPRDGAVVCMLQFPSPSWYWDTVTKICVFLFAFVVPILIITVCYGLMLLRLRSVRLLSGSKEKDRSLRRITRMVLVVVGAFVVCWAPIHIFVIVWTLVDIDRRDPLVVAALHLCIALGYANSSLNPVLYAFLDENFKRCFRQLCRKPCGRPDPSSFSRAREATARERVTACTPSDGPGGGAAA
Description: as §1

[8] = tested on: Ca2+ channel (L, dihydropyridine site); assay: In vitro CEREP profiling, Ca2+ channel (L, dihydropyridine site) (antagonist radioligand); assay type: binding; settings: test compound concentration 10 uM
Description: as §1

[9] = biological target: T6, Potassium Channel hERG (human) (Homo sapiens, UniProt Q12809); assay: In vitro CEREP profiling, Potassium Channel hERG (human)- [3H] Dofetilide; assay type: binding; settings: test compound concentration 10 uM
T6 construct: purchased Eurofins Cerep (SafetyScreen44), recognised from the panel format
T6 sequence (Q12809 whole entry): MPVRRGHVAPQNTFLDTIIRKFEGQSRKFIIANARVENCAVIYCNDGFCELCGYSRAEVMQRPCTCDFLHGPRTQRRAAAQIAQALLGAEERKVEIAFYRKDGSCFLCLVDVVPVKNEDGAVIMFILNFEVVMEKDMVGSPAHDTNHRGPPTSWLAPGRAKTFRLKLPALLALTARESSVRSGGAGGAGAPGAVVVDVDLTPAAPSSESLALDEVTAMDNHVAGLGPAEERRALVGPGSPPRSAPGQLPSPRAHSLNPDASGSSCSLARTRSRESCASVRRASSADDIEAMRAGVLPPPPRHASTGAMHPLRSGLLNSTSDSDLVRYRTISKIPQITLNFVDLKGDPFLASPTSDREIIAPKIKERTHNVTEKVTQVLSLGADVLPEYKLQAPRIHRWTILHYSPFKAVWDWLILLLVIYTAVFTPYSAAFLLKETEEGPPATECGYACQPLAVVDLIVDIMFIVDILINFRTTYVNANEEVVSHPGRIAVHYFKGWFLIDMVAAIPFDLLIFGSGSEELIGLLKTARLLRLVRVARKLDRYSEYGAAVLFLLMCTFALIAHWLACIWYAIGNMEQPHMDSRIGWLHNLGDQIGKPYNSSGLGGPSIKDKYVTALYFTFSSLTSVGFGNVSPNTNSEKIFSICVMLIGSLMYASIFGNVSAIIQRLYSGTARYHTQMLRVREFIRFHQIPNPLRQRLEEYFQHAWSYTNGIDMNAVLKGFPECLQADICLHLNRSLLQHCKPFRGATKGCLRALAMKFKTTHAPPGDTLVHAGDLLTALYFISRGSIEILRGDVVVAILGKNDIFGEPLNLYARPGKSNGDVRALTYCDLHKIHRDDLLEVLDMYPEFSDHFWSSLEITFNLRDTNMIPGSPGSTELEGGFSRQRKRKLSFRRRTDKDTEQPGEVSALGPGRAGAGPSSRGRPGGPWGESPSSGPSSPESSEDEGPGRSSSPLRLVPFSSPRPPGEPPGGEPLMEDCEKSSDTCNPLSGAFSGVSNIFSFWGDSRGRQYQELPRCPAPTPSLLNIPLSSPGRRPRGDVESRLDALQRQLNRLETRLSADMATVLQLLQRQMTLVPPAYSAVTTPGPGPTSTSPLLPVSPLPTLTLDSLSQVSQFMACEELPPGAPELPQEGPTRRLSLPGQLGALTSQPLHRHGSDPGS
Description: as §1

[10] = biological target: hERG (Homo sapiens, UniProt Q12809); assay: In vitro hERG cardiotoxocity
Sequence of hERG (Q12809 whole entry): as above
Description: Supplement media-1.zip/Cardiotoxicity.csv, table | column: ic50; perc_inhibition_top_conc

[11] = biological target: T7, ETA (h) (Homo sapiens, UniProt P25101); assay: In vitro CEREP profiling, ETA (h) (agonist radioligand); assay type: binding; settings: test compound 10 uM
T7 construct: purchased Eurofins Cerep (SafetyScreen44), recognised from the panel format
T7 sequence (P25101 21-427): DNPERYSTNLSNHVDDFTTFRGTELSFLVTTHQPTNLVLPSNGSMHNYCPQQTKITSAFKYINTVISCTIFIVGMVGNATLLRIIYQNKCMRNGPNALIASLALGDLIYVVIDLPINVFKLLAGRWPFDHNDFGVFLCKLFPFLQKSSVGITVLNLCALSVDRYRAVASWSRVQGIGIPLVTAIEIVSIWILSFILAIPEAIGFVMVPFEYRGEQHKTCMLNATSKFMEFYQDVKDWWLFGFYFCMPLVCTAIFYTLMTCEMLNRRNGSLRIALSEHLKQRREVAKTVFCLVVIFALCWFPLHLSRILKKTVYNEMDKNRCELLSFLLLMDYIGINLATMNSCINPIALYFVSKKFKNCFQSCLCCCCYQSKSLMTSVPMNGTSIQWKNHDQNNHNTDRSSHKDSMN
Description: as §1

[12] = In vitro dog liver microsomal stability; assay type: in vitro ADME
Description: Supplement media-1.zip/Hepatic_Microsomal_Stability.csv, table | column: clint; t_half

[13] = in vitro; settings: human, hela-ace2 cells, 50.0
[14] = maximum measured response of dose series
[15] = minimum measured response of dose series
[16] = Severe acute respiratory syndrome coronavirus 2
[17] = protocol HeLa-ACE2 cytotoxicity

In the case of `CC(C)C(Nc1ncnc2[nH]ccc12)c1ccc2c(c1)S(=O)(=O)CCC2` (centres unmarked) [ASAP-0008327], the perc_max_measured [1, 14] is reported as 112.988%, the perc_min_measured [1, 15] is reported as 76.031% and the EC50 [1, 16] is reported as > 50 µM. The EC90 [1, 16] was > 50 µM, the cc10 [2, 17] was > 50.0 µM and the perc_max_measured [2, 17] was 104.85%. It also gave a perc_min_measured [2, 17] of 98.585%.

For `CC(C)[C@@H](Nc1ncnc2[nH]c(-c3cnn(C)c3C#N)cc12)c1ccc2c(n1)OCCO2` [ASAP-0008418], the perc_max_measured [1, 14] was 143.7% and 101.777%, the perc_min_measured [1, 15] was 4.604% and 4.949% and the EC50 [1] was 5.89 µM and 5.04 µM. The EC90 [1] was 6.44 µM and 10.5 µM, the CC50 [2, 17] was > 50 µM and the cc10 [2, 17] was > 50.0 µM. For the same molecule, the perc_max_measured [2, 17] was 131.128% and 106.847% and the perc_min_measured [2, 17] was 59.813% and 94.114%.

Work on `CC(C)[C@H](Nc1ncnc2[nH]ccc12)c1ccc2c(c1)S(=O)(=O)CCC2` [ASAP-0008674] yielded a perc_max_measured ([1]; maximum measured response) of 158.705%, a perc_max_measured [1, 14] of 129.029% and a perc_min_measured ([1]; minimum measured response) of 84.767%. For the same molecule, the perc_min_measured [1, 15] was 103.942%, the EC50 [1] was > 20 µM and the EC90 [1] was > 20 µM. The “perc_inhibition (% inhibition of the binding of a ligand specific for each target)” value [3] was 34%, the “perc_inhibition (% inhibition of the binding of a ligand specific for each target)” value [4] was 12% and the “perc_inhibition (% inhibition of the binding of a ligand specific for each target)” value [5] was 7%. The “perc_inhibition (% inhibition of the binding of a ligand specific for each target)” value [6] was 6%, the “perc_inhibition (% inhibition of the binding of a ligand specific for each target)” value [7] was 30% and the “perc_inhibition (% inhibition of the binding of a ligand specific for each target)” value [8] was 12%. The “perc_inhibition (% inhibition of the binding of a ligand specific for each target)” value [9] was 20%, the CC50 ([2]; HeLa-ACE2 cytotoxicity) was > 20 µM and the cc10 ([2]; HeLa-ACE2 cytotoxicity) was > 20.0 µM. For the same molecule, the perc_max_measured ([2]; HeLa-ACE2 cytotoxicity) was 118.208% and 98.628%, the perc_min_measured ([2]; HeLa-ACE2 cytotoxicity) was 91.836% and 85.869% and the perc_inhibition_top_conc ([10]; at top test concentration 30 uM) was 39.0%. For the same molecule, the IC50 ([10]; top test concentration 30 uM) was > 30 µM, the “perc_inhibition (% inhibition of the binding of a ligand specific for each target)” value [11] was -1% and the clint [12] was 14.3 µL/min/mg. The t_half [12] was 48.5 min and the CC50 at 24 h [13] was > 20 µM.
